According to the NIST ThermoML archive (doi:10.1016/j.tca.2010.01.019):
± gives the expanded uncertainty stated by the source.

Settings: Crystal, Calculated from knudsen effusion weight loss

Compound: CC(C)(C)c1ccc2c(c1)-c1nc-2nc2[n-]c(nc3nc(nc4[n-]c(n1)c1ccc(C(C)(C)C)cc41)-c1ccc(C(C)(C)C)cc1-3)c1ccc(C(C)(C)C)cc21.[Cu+2] [copper tetra-4-tert-butylphthalocyanine]
- vapor or sublimation pressure (587 K): 4.737e-06 ± 3.3e-06 kPa
- vapor or sublimation pressure (604 K): 1.852e-05 ± 6.8e-06 kPa
- vapor or sublimation pressure (620 K): 5.892e-05 ± 1.7e-05 kPa
- vapor or sublimation pressure (640 K): 0.0001549 ± 4.1e-05 kPa
- vapor or sublimation pressure (656 K): 0.0004 ± 8.6e-05 kPa
- vapor or sublimation pressure (679 K): 0.0008741 ± 0.00019 kPa
- vapor or sublimation pressure (696 K): 0.002084 ± 0.00039 kPa
